Assay results from PMC3494675, “Structure-Function Analysis of the Glioma Targeting NFL-TBS.40-63 Peptide Corresponding to the Tubulin-Binding Site on the Light Neurofilament Subunit” (PLoS ONE, 2012).
Square brackets hold non-standard residues; d marks the D form. Peptide text beside a SMILES is read from it. * marks the point of attachment. Biotin = O=C1N[C@H]2[C@H](CS[C@H]2CCCCC(=O)*)N1; pS = N[C@@H](COP(=O)(O)O)C(=O)O

How the values were obtained:
[1] = system: T98G human glioblastoma cells; assay: Disintegration of the microtubule network in T98G cells (anti-tubulin immunostaining, cell counting); type: cell-based; conditions: 6 hours; for Disintegration of MT (% of cells): T98G cells, 10 µM biotinylated peptide, anti-tubulin immunostaining, minimum 200 cells per experiment, mean ± S.E.M., triplicated; for Effect on MT network of T98G / glioma cells (in words): 10 µM, immunocytochemistry
Summary of the method: (§1)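 Cells on cover slips were cultured 6 h with 10 μM biotinylated peptide, permeabilized, and stained with anti-β-tubulin plus fluorescent streptavidin. By fluorescence/confocal microscopy, ≥200 cells per experiment were scored for peptide uptake and for a normal versus destroyed microtubule network; at least three repeats.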

[2] = system: glioma cells; conditions: shown previously; cited from earlier work
From the text: However, contrary to the known CPPs, which are composed mostly of arginines and lysines, the NFL-TBS.40-63 peptide contains only 2 arginine residues and no lysine. […] In addition, the cell penetrating activity appears to correlate with a particular structural pattern.

[3] = system: T98G human glioblastoma cells; assay: Peptide incorporation into T98G cells (immunocytochemistry, cell counting); type: cell-based; conditions: 6 hours; for Cell penetration / internalization in T98G cells (in words): 10 µM, immunocytochemistry, compared to original NFL-TBS.40-63; for Peptide incorporation (% of cells): T98G cells, 10 µM biotinylated peptide, Alexa-labeled avidin/streptavidin fluorescence microscopy, minimum 200 cells per experiment, mean ± S.E.M., triplicated
Summary of the method: as §1

[4] = Secondary structure estimation from CD spectra; type: physicochemical; conditions: KF/phosphate buffer pH 7.4, 20 µM, Reed's reference set
Procedure: Circular dichroism (CD) spectra were measured in a J-810 CD spectrometer (Jasco, Japan) in step mode (bandwidth: 2 nm; interval: 0.1 nm; response time: 0.125 s). The spectra were averaged over 3 scans to increase the signal to noise ratio. To optimize the measurements, a 1 cm×0.2 cm mini-quartz cell with four windows (Hellema, Germany) was used in such a way that the spectra from 260 to 200 nm were measured with a 1 cm pathlength and those between 220 and 185 nm with 0.2 cm pathlength. After normalization for pathlength (1 cm), the superimposition of two separated spectra in the 200–220 nm region was verified and the entire spectra reconstituted. The temperature of measurement was controlled with a Peltier-effect temperature controller, and was usually 20°C. The structural stability of peptides was studied by measuring the variation in CD signal at 220 nm (bandwidth: 10 nm; interval: 1 s; response time: 0.5 s; pathlength: 1 cm) when the temperature was increased by 1°C/min from 20 to 85°C. All the CD experiments were performed with 20 µM peptide under 3 buffer conditions: pure water, 2 mM SDS and 10 mM potassium phosphate pH 7.4 with 200 mM KF.
The secondary structures were estimated from the CD spectra with Jasco secondary structure estimation software. The spectra from […] were decomposed to α-helix, β-sheet, β-turn and random coil elements using either Reed's or Yang's reference set as reference spectrum of each element as described, [38]. We usually obtained better fits using Reed's reference.

Compound	Disintegration of MT (% of cells) [1]	Cell penetration / internalization (in words) [2]	Effect on MT network of T98G / glioma cells (in words) [1]	Cell penetration / internalization in T98G cells (in words) [3]	Peptide incorporation (% of cells) [3]	random coil content [4]	β-sheet content [4]
CC(C)C[C@H](NC(=O)[C@H](CO)NC(=O)CCCC[C@@H]1SC[C@@H]2NC(=O)N[C@@H]21)C(=O)NCC(=O)N[C@@H](CO)C(=O)N1CCC[C@H]1C(=O)N[C@@H](CO)C(=O)N[C@@H](CO)C(=O)N[C@@H](CO)C(=O)N[C@H](C(=O)N[C@@H](CCCNC(=N)N)C(=O)N[C@@H](C)C(=O)N[C@@H](CO)C(=O)N[C@@H](Cc1ccc(O)cc1)C(=O)N[C@@H](CO)C(=O)N[C@@H](CO)C(=O)N[C@@H](CO)C(=O)N[C@@H](CCCNC(=N)N)C(=O)N[C@@H](CO)C(=O)N[C@@H](Cc1ccc(O)cc1)C(=O)N[C@H](C(=O)N[C@@H](Cc1ccc(O)cc1)C(=O)N[C@@H](CO)C(=O)N[C@@H](CO)C(=O)N[C@@H](CO)C(N)=O)C(C)C)C(C)C [NFL-SCR, reference compound] (Biotin-SLGSPSSSVRASYSSSRSYVYSSS-NH2)	18.18±3.2 % of cells	do not penetrate in cells	–	–	–	–	–
CC(C)C[C@H](NC(=O)[C@H](CO)NC(=O)[C@H](CO)NC(=O)[C@H](CO)NC(=O)[C@@H](NC(=O)[C@@H]1CCCN1C(=O)[C@H](C)NC(=O)[C@H](CO)NC(=O)[C@H](Cc1ccc(O)cc1)NC(=O)[C@H](CO)NC(=O)[C@H](CO)NC(=O)[C@H](Cc1ccc(O)cc1)NC(=O)CCCC[C@@H]1SC[C@@H]2NC(=O)N[C@@H]21)C(C)C)C(=O)N[C@@H](CO)C(=O)N[C@H](C(=O)N[C@@H](CCCNC(=N)N)C(=O)N[C@@H](CCCNC(=N)N)C(=O)N[C@@H](COP(=O)(O)O)C(=O)N[C@@H](Cc1ccc(O)cc1)C(=O)N[C@@H](CO)C(=O)N[C@@H](CO)C(=O)N[C@@H](CO)C(=O)N[C@@H](CO)C(=O)NCC(=O)N[C@@H](CO)C(N)=O)C(C)C [Ser17SerP] (Biotin-YSSYSAPVSSSLSVRR[pS]YSSSSGS-NH2)	22.9±1.3 % of cells	–	not altered	decreased internalization	32.8±8.7 % of cells	53%	40%
CC(C)C[C@H](NC(=O)[C@H](CO)NC(=O)[C@H](CO)NC(=O)[C@H](CO)NC(=O)[C@@H](NC(=O)[C@@H]1CCCN1C(=O)[C@H](C)NC(=O)[C@H](CO)NC(=O)[C@H](Cc1ccc(O)cc1)NC(=O)[C@H](CO)NC(=O)[C@H](CO)NC(=O)[C@H](Cc1ccc(O)cc1)NC(=O)CCCC[C@@H]1SC[C@@H]2NC(=O)N[C@@H]21)C(C)C)C(=O)N[C@@H](CO)C(=O)N[C@H](C(=O)N[C@@H](CCCNC(=N)N)C(=O)N[C@@H](CCCNC(=N)N)C(=O)N[C@@H](CO)C(=O)N[C@@H](Cc1ccc(O)cc1)C(=O)N[C@@H](COP(=O)(O)O)C(=O)N[C@@H](CO)C(=O)N[C@@H](CO)C(=O)N[C@@H](CO)C(=O)NCC(=O)N[C@@H](CO)C(N)=O)C(C)C [Ser19SerP] (Biotin-YSSYSAPVSSSLSVRRSY[pS]SSSGS-NH2)	19.4±2.1 % of cells	–	not altered	decreased internalization	27.3±12.1 % of cells	60%	34%
CC(C)C[C@H](NC(=O)[C@H](CO)NC(=O)[C@H](CO)NC(=O)[C@H](CO)NC(=O)[C@@H](NC(=O)[C@@H]1CCCN1C(=O)[C@H](C)NC(=O)[C@H](CO)NC(=O)[C@H](Cc1ccc(O)cc1)NC(=O)[C@H](CO)NC(=O)[C@H](CO)NC(=O)[C@H](Cc1ccccc1)NC(=O)CCCC[C@@H]1SC[C@@H]2NC(=O)N[C@@H]21)C(C)C)C(=O)N[C@@H](CO)C(=O)N[C@H](C(=O)N[C@@H](CCCNC(=N)N)C(=O)N[C@@H](CCCNC(=N)N)C(=O)N[C@@H](CO)C(=O)N[C@@H](Cc1ccc(O)cc1)C(=O)N[C@@H](CO)C(=O)N[C@@H](CO)C(=O)N[C@@H](CO)C(=O)N[C@@H](CO)C(=O)NCC(=O)N[C@@H](CO)C(N)=O)C(C)C [Tyr1Phe] (Biotin-FSSYSAPVSSSLSVRRSYSSSSGS-NH2)	41.2±4.0 % of cells	–	–	–	56.3±2.8 % of cells	–	–
CC(C)C[C@H](NC(=O)[C@H](CO)NC(=O)[C@H](CO)NC(=O)[C@H](CO)NC(=O)[C@@H](NC(=O)[C@@H]1CCCN1C(=O)[C@H](C)NC(=O)[C@H](CO)NC(=O)[C@H](C)NC(=O)[C@H](CO)NC(=O)[C@H](CO)NC(=O)[C@H](Cc1ccc(O)cc1)NC(=O)CCCC[C@@H]1SC[C@@H]2NC(=O)N[C@@H]21)C(C)C)C(=O)N[C@@H](CO)C(=O)N[C@H](C(=O)N[C@@H](CCCNC(=N)N)C(=O)N[C@@H](CCCNC(=N)N)C(=O)N[C@@H](CO)C(=O)N[C@@H](Cc1ccc(O)cc1)C(=O)N[C@@H](CO)C(=O)N[C@@H](CO)C(=O)N[C@@H](CO)C(=O)N[C@@H](CO)C(=O)NCC(=O)N[C@@H](CO)C(N)=O)C(C)C [Tyr4Ala] (Biotin-YSSASAPVSSSLSVRRSYSSSSGS-NH2)	24.4±4.6 % of cells	–	–	–	5.3±2.4 % of cells	–	–
CC(C)C[C@H](NC(=O)[C@H](CO)NC(=O)[C@H](CO)NC(=O)[C@H](CO)NC(=O)[C@@H](NC(=O)[C@@H]1CCCN1C(=O)[C@H](C)NC(=O)[C@H](CO)NC(=O)[C@H](Cc1ccc(O)cc1)NC(=O)[C@H](CO)NC(=O)[C@H](CO)NC(=O)[C@H](Cc1ccc(O)cc1)NC(=O)CCCC[C@@H]1SC[C@@H]2NC(=O)N[C@@H]21)C(C)C)C(=O)N[C@@H](CO)C(=O)N[C@H](C(=O)N[C@@H](CCCNC(=N)N)C(=O)N[C@@H](CCCNC(=N)N)C(=O)N[C@@H](CO)C(=O)N[C@@H](C)C(=O)N[C@@H](CO)C(=O)N[C@@H](CO)C(=O)N[C@@H](CO)C(=O)N[C@@H](CO)C(=O)NCC(=O)N[C@@H](CO)C(N)=O)C(C)C [Tyr18Ala] (Biotin-YSSYSAPVSSSLSVRRSASSSSGS-NH2)	16.0±2.8 % of cells	–	–	–	7.9±0.9 % of cells	–	–
CC(C)C[C@H](NC(=O)[C@H](CO)NC(=O)[C@H](CO)NC(=O)[C@H](CO)NC(=O)[C@H](C)NC(=O)[C@@H]1CCCN1C(=O)[C@H](C)NC(=O)[C@H](CO)NC(=O)[C@H](Cc1ccc(O)cc1)NC(=O)[C@H](CO)NC(=O)[C@H](CO)NC(=O)[C@H](Cc1ccc(O)cc1)NC(=O)CCCC[C@@H]1SC[C@@H]2NC(=O)N[C@@H]21)C(=O)N[C@@H](CO)C(=O)N[C@H](C(=O)N[C@@H](CCCNC(=N)N)C(=O)N[C@@H](CCCNC(=N)N)C(=O)N[C@@H](CO)C(=O)N[C@@H](Cc1ccc(O)cc1)C(=O)N[C@@H](CO)C(=O)N[C@@H](CO)C(=O)N[C@@H](CO)C(=O)N[C@@H](CO)C(=O)NCC(=O)N[C@@H](CO)C(N)=O)C(C)C [Val8Ala] (Biotin-YSSYSAPASSSLSVRRSYSSSSGS-NH2)	23.6±2.1 % of cells	–	–	–	9.9±3.4 % of cells	–	–
CC(C)C[C@H](NC(=O)[C@H](CO)NC(=O)[C@H](CO)NC(=O)[C@H](CO)NC(=O)[C@@H](NC(=O)[C@@H]1CCCN1C(=O)[C@H](C)NC(=O)[C@H](CO)NC(=O)[C@H](Cc1ccc(O)cc1)NC(=O)[C@H](CO)NC(=O)[C@H](CO)NC(=O)[C@H](Cc1ccc(O)cc1)NC(=O)CCCC[C@@H]1SC[C@@H]2NC(=O)N[C@@H]21)C(C)C)C(=O)N[C@@H](CO)C(=O)N[C@@H](C)C(=O)N[C@@H](CCCNC(=N)N)C(=O)N[C@@H](CCCNC(=N)N)C(=O)N[C@@H](CO)C(=O)N[C@@H](Cc1ccc(O)cc1)C(=O)N[C@@H](CO)C(=O)N[C@@H](CO)C(=O)N[C@@H](CO)C(=O)N[C@@H](CO)C(=O)NCC(=O)N[C@@H](CO)C(N)=O [Val14Ala] (Biotin-YSSYSAPVSSSLSARRSYSSSSGS-NH2)	13.8±3.9 % of cells	–	does not affect the MT network	fails to enter in cells	0 % of cells	–	–
CC(C)C[C@H](NC(=O)[C@H](CO)NC(=O)[C@H](CC(C)C)NC(=O)[C@H](CO)NC(=O)[C@H](CO)NC(=O)[C@H](CO)NC(=O)[C@@H](NC(=O)[C@@H]1CCCN1C(=O)[C@H](C)NC(=O)[C@H](CO)NC(=O)[C@H](Cc1ccc(O)cc1)NC(=O)[C@H](CO)NC(=O)[C@H](CO)NC(=O)[C@H](Cc1ccc(O)cc1)NC(=O)CCCC[C@@H]1SC[C@@H]2NC(=O)N[C@@H]21)C(C)C)C(=O)N[C@@H](CCCNC(=N)N)C(=O)N[C@@H](CCCNC(=N)N)C(=O)N[C@@H](CO)C(=O)N[C@@H](Cc1ccc(O)cc1)C(=O)N[C@@H](CO)C(=O)N[C@@H](CO)C(=O)N[C@@H](CO)C(=O)N[C@@H](CO)C(=O)NCC(=O)N[C@@H](CO)C(N)=O [Val14Leu] (Biotin-YSSYSAPVSSSLSLRRSYSSSSGS-NH2)	39.2±2.4 % of cells	–	–	–	44.2±2.2 % of cells	–	–
